Data set [1] deals with T1, MAP3K15 (Homo sapiens, UniProt Q6ZN16).
T1 construct: purchased Eurofins DiscoverX KINOMEscan
T1 sequence (Q6ZN16 1-1313): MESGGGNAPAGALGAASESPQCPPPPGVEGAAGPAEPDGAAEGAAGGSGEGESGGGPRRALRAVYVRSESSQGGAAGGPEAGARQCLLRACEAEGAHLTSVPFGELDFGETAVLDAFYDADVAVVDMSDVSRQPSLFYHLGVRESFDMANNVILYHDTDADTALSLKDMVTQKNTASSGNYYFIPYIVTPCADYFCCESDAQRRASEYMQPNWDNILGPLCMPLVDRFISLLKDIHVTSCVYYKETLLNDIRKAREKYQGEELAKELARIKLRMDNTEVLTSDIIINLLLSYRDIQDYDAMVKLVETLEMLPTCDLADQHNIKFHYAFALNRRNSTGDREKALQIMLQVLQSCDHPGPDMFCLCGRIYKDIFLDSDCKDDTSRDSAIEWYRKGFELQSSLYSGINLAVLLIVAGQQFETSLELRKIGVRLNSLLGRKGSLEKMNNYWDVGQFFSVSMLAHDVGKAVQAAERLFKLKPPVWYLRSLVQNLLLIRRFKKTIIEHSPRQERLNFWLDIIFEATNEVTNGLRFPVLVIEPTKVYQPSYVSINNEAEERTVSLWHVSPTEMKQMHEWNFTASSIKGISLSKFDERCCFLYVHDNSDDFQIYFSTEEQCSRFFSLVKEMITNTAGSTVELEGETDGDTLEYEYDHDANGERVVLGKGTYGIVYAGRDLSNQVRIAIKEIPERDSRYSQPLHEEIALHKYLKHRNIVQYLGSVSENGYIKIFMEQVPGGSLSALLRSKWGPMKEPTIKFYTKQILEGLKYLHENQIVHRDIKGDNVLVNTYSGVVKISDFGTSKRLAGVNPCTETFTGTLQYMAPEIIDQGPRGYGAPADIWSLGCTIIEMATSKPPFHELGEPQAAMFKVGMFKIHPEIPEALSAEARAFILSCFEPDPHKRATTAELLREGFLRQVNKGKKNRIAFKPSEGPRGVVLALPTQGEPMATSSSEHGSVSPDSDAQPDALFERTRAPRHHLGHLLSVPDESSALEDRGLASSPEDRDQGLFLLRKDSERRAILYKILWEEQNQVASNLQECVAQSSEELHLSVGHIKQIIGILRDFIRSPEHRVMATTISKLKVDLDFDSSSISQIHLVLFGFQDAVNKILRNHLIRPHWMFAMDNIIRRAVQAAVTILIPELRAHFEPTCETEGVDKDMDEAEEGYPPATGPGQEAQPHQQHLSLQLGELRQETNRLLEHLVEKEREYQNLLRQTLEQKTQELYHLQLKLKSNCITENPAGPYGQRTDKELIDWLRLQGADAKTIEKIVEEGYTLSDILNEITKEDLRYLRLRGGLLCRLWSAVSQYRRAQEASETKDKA
In words: KINOMEscan. The note with it: read-out: % control activity remaining. In kind it is binding.

Data set [2] deals with T2, MEK6 (Homo sapiens, UniProt P52564).
T2 construct: purchased Eurofins DiscoverX KINOMEscan
Briefly: KINOMEscan. It is filed as binding. The conditions noted are these: read-out: % control activity remaining.

In data set [3] the target is T3, FES (Homo sapiens, UniProt P07332).
T3 construct: purchased Eurofins DiscoverX KINOMEscan
T3 sequence (P07332 whole entry): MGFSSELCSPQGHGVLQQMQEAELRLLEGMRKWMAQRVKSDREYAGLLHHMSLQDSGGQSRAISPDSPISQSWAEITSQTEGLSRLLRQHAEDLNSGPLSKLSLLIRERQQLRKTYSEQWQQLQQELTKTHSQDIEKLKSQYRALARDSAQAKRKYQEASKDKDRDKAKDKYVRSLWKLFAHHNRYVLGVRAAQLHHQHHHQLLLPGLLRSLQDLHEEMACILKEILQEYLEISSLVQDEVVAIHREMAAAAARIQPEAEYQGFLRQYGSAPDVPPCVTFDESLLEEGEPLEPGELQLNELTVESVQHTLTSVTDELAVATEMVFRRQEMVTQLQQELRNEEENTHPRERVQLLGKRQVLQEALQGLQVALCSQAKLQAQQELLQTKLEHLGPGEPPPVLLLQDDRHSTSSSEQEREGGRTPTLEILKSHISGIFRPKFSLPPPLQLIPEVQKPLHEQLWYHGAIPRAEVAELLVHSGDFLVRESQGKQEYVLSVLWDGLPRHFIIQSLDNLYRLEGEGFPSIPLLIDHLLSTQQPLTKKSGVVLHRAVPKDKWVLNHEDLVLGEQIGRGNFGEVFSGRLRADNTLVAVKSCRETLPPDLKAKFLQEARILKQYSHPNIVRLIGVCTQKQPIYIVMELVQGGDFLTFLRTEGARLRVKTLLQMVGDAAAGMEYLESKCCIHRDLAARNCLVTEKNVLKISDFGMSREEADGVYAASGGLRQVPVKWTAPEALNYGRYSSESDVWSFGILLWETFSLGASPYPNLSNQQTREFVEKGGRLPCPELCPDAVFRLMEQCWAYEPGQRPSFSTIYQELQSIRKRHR
In words: KINOMEscan. The conditions noted are these: read-out: % control activity remaining. In kind it is binding.

Data set [4] in a line: in vitro. The note with it: human.
Data set [5] deals with T4, ERN1 (Homo sapiens, UniProt O75460).
T4 construct: purchased Eurofins DiscoverX KINOMEscan
T4 sequence (O75460 19-977): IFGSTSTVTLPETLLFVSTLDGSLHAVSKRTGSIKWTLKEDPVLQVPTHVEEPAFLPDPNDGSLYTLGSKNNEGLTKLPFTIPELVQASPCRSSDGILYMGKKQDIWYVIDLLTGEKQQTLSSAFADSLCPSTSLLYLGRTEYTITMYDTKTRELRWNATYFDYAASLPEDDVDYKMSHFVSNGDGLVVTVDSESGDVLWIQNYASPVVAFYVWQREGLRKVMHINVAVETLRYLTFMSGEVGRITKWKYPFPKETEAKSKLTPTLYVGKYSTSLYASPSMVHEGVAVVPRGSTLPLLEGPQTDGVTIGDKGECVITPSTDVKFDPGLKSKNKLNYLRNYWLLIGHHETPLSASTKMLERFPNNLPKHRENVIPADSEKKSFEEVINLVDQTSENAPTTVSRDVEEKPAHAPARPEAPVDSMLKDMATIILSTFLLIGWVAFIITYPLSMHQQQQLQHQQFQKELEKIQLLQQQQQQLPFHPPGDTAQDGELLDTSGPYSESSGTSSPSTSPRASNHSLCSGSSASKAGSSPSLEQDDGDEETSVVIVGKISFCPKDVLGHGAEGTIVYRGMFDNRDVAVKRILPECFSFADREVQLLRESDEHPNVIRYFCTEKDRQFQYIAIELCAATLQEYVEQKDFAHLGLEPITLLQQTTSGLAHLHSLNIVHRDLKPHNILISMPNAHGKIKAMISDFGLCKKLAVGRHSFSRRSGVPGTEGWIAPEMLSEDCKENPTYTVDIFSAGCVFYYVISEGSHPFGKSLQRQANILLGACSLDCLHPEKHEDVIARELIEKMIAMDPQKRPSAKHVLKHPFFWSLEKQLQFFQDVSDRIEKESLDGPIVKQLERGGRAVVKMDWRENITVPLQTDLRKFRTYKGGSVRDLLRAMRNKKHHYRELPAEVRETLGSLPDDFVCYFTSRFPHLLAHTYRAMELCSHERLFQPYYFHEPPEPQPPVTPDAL
Briefly: KINOMEscan. It is filed as binding. The note with it: read-out: % control activity remaining.

Data set [6] deals with T5, VRK2 (Homo sapiens, UniProt Q86Y07).
T5 construct: purchased Eurofins DiscoverX KINOMEscan
In words: KINOMEscan. It is filed as binding. The note with it: read-out: % control activity remaining.

Data set [7] has as its system FLT3(ITD,D835Y). Briefly: KINOMEscan. The note with it: 1000 nM. It is filed as binding, human.
The subject of data set [8] is IRE1α-dependent splicing of XBP1u-luciferase mRNA reporter in HEK293 cells. In words: XBP1 luciferase fusion mRNA splicing reporter in HEK293 cells. In kind it is cell-based, human. The conditions noted are these: Homo sapiens, HEK293, read-out: tunicamycin- and thapsigargin-induced splicing of XBP1 luciferase fusion mRNA IC50.
In data set [9] the target is T6, WNK4 (Homo sapiens, UniProt Q96J92).
T6 construct: purchased Eurofins DiscoverX KINOMEscan
Briefly: KINOMEscan. It is filed as binding. The conditions noted are these: read-out: % control activity remaining.

In data set [10] the target is T7, GRK3 (Homo sapiens, UniProt P35626).
T7 construct: purchased Eurofins DiscoverX KINOMEscan
Briefly: KINOMEscan. The note with it: read-out: % control activity remaining. It is filed as binding.

Data set [11] addresses T8, VPS34 (Homo sapiens, UniProt Q8NEB9).
T8 construct: purchased Eurofins DiscoverX KINOMEscan
Briefly: KINOMEscan. The note with it: read-out: % control activity remaining. In kind it is binding.

For data set [12], the system named is FLT3(ITD,D835V). Briefly: KINOMEscan. The conditions noted are these: 1000 nM. In kind it is binding, human.
The target of data set [13] is IRE1α (Homo sapiens, UniProt O75460). Briefly: biochemical. It is filed as binding.
IRE1α, sequence (O75460 19-977): as above
Data set [14] concerns GFP-IRE1α oligomerization in HEK293 cells. Briefly: GFP-IRE1α foci (oligomerization) assay in HEK293 cells. In kind it is cell-based, human. The conditions noted are these: absence of tunicamycin.
Data set [15] deals with T9, GRK2 (Homo sapiens, UniProt P25098).
T9 construct: purchased Eurofins DiscoverX KINOMEscan
T9 sequence (P25098 whole entry): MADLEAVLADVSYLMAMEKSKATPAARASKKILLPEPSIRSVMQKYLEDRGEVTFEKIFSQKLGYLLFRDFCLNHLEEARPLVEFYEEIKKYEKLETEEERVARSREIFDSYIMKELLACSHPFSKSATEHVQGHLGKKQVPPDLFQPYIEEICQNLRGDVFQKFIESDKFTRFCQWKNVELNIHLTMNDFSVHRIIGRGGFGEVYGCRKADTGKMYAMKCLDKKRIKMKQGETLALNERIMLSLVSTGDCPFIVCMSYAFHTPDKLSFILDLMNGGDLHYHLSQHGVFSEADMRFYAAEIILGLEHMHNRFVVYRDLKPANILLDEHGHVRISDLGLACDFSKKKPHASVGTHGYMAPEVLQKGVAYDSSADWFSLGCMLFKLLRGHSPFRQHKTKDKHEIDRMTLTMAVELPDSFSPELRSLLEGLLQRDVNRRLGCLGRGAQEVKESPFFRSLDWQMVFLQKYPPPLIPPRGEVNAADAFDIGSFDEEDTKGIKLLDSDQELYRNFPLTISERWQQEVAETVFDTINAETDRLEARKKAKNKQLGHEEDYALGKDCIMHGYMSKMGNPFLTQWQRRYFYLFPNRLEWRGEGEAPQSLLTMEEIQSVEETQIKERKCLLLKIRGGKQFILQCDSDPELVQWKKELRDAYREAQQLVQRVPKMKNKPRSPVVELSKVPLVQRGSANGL
Briefly: KINOMEscan. It is filed as binding. The note with it: read-out: % control activity remaining.

The target in data set [16] is T10, CDK4 (Homo sapiens, UniProt P11802).
T10 construct: purchased Eurofins DiscoverX KINOMEscan
T10 sequence (P11802 whole entry): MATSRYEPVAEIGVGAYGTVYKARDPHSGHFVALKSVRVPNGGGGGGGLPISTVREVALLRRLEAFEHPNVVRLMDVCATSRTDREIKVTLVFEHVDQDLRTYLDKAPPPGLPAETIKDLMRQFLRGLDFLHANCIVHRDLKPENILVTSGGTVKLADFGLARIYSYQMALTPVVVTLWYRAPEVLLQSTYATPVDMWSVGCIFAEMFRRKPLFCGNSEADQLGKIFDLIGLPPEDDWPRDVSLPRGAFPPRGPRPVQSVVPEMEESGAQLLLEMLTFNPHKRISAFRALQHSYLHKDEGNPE
Briefly: KINOMEscan. It is filed as binding. The note with it: read-out: % control activity remaining.

Data set [17] can be described thus: Aqueous buffer solubility (KSol).
The nature of data set [18]: Measured lipophilicity Log D7.4. The conditions noted are these: pH 7.4.
The target in data set [19] is T11, WNK2 (Homo sapiens, UniProt Q9Y3S1).
T11 construct: purchased Eurofins DiscoverX KINOMEscan
In words: KINOMEscan. It is filed as binding. The conditions noted are these: read-out: % control activity remaining.

Data set [20] addresses T12, TSSK3 (Homo sapiens, UniProt Q96PN8).
T12 construct: purchased Eurofins DiscoverX KINOMEscan
In words: KINOMEscan. The conditions noted are these: read-out: % control activity remaining. In kind it is binding.

In data set [21] the target is T13, FLT3(D835V) (Homo sapiens, UniProt P36888, D835V).
T13 construct: purchased Eurofins DiscoverX KINOMEscan
In words: KINOMEscan. It is filed as binding. The conditions noted are these: read-out: % control activity remaining.

In data set [22] the target is T14, CAMK1B (Homo sapiens, UniProt Q6P2M8).
T14 construct: purchased Eurofins DiscoverX KINOMEscan
T14 sequence (Q6P2M8 whole entry): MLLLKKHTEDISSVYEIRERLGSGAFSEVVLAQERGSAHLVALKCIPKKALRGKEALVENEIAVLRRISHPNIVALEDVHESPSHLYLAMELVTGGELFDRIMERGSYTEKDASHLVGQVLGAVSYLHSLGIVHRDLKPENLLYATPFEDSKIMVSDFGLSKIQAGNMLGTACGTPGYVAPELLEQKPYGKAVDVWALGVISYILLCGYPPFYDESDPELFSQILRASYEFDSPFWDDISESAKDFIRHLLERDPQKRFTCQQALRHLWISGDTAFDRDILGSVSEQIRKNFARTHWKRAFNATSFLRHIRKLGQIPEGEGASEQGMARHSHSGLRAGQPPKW
Briefly: KINOMEscan. In kind it is binding. The note with it: read-out: % control activity remaining.

The target in data set [23] is T15, PKFYVE (Homo sapiens, UniProt Q9Y2I7).
T15 construct: purchased Eurofins DiscoverX KINOMEscan
Briefly: KINOMEscan. In kind it is binding. The conditions noted are these: read-out: % control activity remaining.

Data set [24] concerns the target IRE1β (Homo sapiens, UniProt Q76MJ5). Briefly: biochemical. In kind it is binding.

pEC50, pIC50: −log10 of the molar value. ≈ marks a conversion by molar mass, not a printed value.

IRE1β, sequence (Q76MJ5 35-926): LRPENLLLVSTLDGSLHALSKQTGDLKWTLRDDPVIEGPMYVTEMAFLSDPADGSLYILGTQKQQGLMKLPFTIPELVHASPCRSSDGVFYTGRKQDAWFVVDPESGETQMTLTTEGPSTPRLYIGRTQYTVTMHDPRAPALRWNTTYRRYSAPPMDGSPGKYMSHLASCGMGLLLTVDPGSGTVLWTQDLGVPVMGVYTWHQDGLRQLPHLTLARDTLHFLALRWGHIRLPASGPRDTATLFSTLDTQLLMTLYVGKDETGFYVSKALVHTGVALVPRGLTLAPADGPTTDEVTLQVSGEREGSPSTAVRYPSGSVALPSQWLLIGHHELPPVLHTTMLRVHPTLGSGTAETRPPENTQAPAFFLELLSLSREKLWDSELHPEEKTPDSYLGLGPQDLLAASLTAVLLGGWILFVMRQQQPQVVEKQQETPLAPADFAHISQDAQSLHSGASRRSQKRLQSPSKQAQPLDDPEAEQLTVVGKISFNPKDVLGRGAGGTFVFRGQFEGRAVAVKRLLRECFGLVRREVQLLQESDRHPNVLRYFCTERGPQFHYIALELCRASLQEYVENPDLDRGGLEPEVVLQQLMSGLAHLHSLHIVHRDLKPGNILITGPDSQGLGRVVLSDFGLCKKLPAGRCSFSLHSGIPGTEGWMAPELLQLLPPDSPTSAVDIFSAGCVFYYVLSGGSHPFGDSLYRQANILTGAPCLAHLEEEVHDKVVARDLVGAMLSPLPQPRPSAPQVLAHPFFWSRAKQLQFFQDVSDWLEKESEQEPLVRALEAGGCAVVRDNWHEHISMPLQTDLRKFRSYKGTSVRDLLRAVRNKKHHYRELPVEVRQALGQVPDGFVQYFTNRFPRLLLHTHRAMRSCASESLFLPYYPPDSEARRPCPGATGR
T8 sequence (Q8NEB9 whole entry): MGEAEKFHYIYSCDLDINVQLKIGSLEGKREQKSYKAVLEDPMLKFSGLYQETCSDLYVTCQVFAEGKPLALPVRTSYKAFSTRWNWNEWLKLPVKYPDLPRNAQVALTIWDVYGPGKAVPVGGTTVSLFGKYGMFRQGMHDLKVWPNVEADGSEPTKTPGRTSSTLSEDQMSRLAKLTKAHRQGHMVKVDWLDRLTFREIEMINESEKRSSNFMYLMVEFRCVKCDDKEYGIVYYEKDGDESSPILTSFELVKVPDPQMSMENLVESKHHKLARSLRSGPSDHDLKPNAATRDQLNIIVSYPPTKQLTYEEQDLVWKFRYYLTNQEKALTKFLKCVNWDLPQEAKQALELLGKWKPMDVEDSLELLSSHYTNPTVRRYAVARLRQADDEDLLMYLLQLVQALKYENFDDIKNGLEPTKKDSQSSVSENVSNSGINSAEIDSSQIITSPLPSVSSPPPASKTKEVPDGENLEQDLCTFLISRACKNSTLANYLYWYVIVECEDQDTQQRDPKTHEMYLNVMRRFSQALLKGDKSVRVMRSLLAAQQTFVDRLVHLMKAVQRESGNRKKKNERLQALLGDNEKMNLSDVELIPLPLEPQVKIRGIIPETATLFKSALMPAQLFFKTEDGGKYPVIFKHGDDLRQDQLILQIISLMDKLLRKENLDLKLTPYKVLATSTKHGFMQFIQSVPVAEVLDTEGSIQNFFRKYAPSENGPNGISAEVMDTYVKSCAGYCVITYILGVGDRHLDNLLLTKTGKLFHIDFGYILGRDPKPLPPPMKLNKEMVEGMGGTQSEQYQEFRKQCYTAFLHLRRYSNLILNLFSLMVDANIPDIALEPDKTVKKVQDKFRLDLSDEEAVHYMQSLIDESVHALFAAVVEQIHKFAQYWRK

Take `Clc1cc(NCC2CC2)c2ncc(-c3ccc4[nH]ncc4c3)n2n1` [compound 2, 6-Chloro-N-(cyclopropylmethyl)-3-(1H-indazol-5-yl)imidazo[1,2-b]pyridazin-8-amine]: the remaining binding at 1 µM was found to be 83% in [1], 98% in data set [2], 87% in [3] and 69% in data set [5]. Moreover, the pEC50 in data set [4] is under 4.31.

As for `O=C(CN1CCOCC1)N[C@H]1CC[C@H](Nc2cc(Cl)nn3c(-c4ccc5[nH]ncc5c4)cnc23)CC1` [compound 26], the remaining binding at 1 µM in [6] was 98%; in data set [9], 100%; in data set [10], 74%; in data set [11], 94%; in data set [1] it was 98%; in [15] it was 84%. In addition, the remaining binding at 1 µM in data set [16] turned out to be 100%; in data set [2] it was 93%; in [19] it was 34%; in data set [20] it was 100%; in data set [3], 88%; in data set [21] it was 0%. In addition, the remaining binding at 1 µM was determined as 75% in data set [22], 41% in data set [5] and 87% in data set [23]. In addition, the entries for the “% control activity remaining” value in data set [7] and in data set [12] were 25% and 0.7%, respectively. In addition, the pIC50 was 5.79 to 6.17 in data set [8], 7.41 in data set [13] and 6.46 in data set [24]. The “stimulation of GFP-IRE1α foci formation by compound on its own” value in [14] is recorded as “No stimulation”. Further, in data set [17], the solubility was determined as 80 µM (≈ 40.7 µg/mL). The compound further displayed a pH-dependent lipophilicity (logD) in data set [18] of 1.8. For the same compound, the pEC50 in data set [4] is under 4.31. The “selectivity for IRE1α over the IRE1β isoform” value in data set [24] stood at 9 fold.

As to `CN1CCC(CNc2cc(Cl)nn3c(-c4cc5nc(Nc6ccccc6)[nH]c5cc4F)cnc23)CC1` [compound 31, 6-Chloro-3-(6-fluoro-2-(phenylamino)-1H-benzo[d]imidazol-5-yl)-N-((1-methylpiperidin-4-yl)methyl)imidazo[1,2-b]pyridazin-8-amine], the remaining binding at 1 µM in [6] was determined as 82%; in [9] it was 83%; in data set [10], 91%; in data set [11] it was 97%; in data set [1] it was 100%; in data set [15] it was 100%. Moreover, the remaining binding at 1 µM in data set [16] worked out at 100%; in data set [19], 100%; in [20], 91%; in [3], 96%; in data set [21] it was 69%; in [22] it was 100%. Moreover, the remaining binding at 1 µM was found to be 33% in data set [5] and 26% in [23]. Moreover, the “% control activity remaining” value in data set [7] is reported as 77%; in [12], 76%. Moreover, the values for the pIC50 in data set [8] and in data set [24] were 5.79 to 6.17 and 5.11, respectively. The “stimulation of GFP-IRE1α foci formation by compound on its own” value in data set [14] was “No stimulation”. The solubility in data set [17] came out at 38 µM (≈ 19.2 µg/mL). Also, in data set [18], the pH-dependent lipophilicity (logD) came out at 3.7. Moreover, the “selectivity for IRE1α over the IRE1β isoform” value in data set [24] came to 100 fold.

Broadly, the pEC50 is −log10 of the EC50, conventionally taken in molar units. Read a low pEC50 as a high EC50. As a reminder, the pIC50 is the IC50 on a negative log10 scale, so that one unit is a factor of ten. As usually defined, the solubility is how much of the substance goes into solution per volume. As usually defined, the logD is the decadic logarithm of the distribution of all forms, ionised or not, between an organic phase and buffer at a given pH. Lower therefore signals lower lipophilicity.
